Experimental data reported in patent publication US11053204B2, “Pyrimidinyloxy benzene derivatives as herbicides” (FMC Corporation, priority 2015, dated 2021).

What was measured:
Type in all cases: in vivo
[1] = system: Italian ryegrass (Lolium multiflorum); experiment: Test A preemergence, visual injury rating; settings: Lolium multiflorum, pre-emergence, 240 h, 0 to 100 scale (0 no effect, 100 complete control), read-out: Ryegrass, Italian plant response rating
How it was run: (§1)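 Visual 0–100 rating (100 = complete control) taken about 10 d post-treatment relative to untreated checks. Preemergence: directed soil spray on sown loam/sand pots. Postemergence: seedlings 2–10 cm, 1–2 leaf. Non-phytotoxic solvent formulation with surfactant.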

[2] = system: barnyardgrass (Echinochloa crus-galli); experiment: Test A preemergence, visual injury rating; settings: Echinochloa crus-galli, pre-emergence, 240 h, 0 to 100 scale (0 no effect, 100 complete control), read-out: Barnyardgrass plant response rating
How it was run: as §1

[3] = system: giant foxtail (Setaria faberii); experiment: Test A preemergence, visual injury rating; settings: Setaria faberi, pre-emergence, 240 h, 0 to 100 scale (0 no effect, 100 complete control), read-out: Foxtail, Giant plant response rating
How it was run: as §1

[4] = system: ragweed (common ragweed, Ambrosia elatior); experiment: Test A preemergence, visual injury rating; settings: Ambrosia artemisiifolia, pre-emergence, 240 h, 0 to 100 scale (0 no effect, 100 complete control), read-out: Ragweed plant response rating
How it was run: as §1

[5] = system: blackgrass (Alopecurus myosuroides); experiment: Test C preemergence, plant response rating; settings: scale 0 to 100; for Blackgrass plant response rating: preemergence
Description: (§2) Seeds of plant species selected from blackgrass (Alopecurus myosuroides), ryegrass, Italian (Italian ryegrass, Lolium multiflorum), wheat (winter wheat, Triticum aestivum), galium (catchweed bedstraw, Galium aparine), corn (Zea mays), crabgrass, large (large crabgrass, Digitaria sanguinalis), foxtail, giant (giant foxtail, Setaria faberii), johnsongrass (Sorghum halepense), lambsquarters (Chenopodium album), morningglory (Ipomoea coccinea), nutsedge, yellow (yellow nutsedge, Cyperus esculentus), pigweed (Amaranthus retroflexus), ragweed (common ragweed, Ambrosia elatior), soybean (Glycine max), barnyardgrass (Echinochloa crus-galli), oilseed rape (Brassica napus), pigweed, palmer (palmer pigweed, Amaranthus palmeri), waterhemp (common waterhemp, Amaranthus rudis), velvetleaf (Abutilon theophrasti), kochia (Kochia scoparia), surinam grass (Brachiaria decumbens), nightshade (eastern black nightshade, Solanum ptycanthum), wild poinsettia (Euphorbia heterophylla), windgrass (Apera spica-venti), and oat, wild (wild oat Avena fatua), were planted into a blend of loam soil and sand or a silt loam soil and treated preemergence with test chemicals formulated in a non-phytotoxic solvent mixture which included a surfactant.
(§3) At the same time, plants selected from these crop and weed species and also chickweed (common chickweed, Stellaria media), buckwheat, wild (wild buckwheat, Polygonum convolvulus), wild mustard (Sinapis arvensis), field poppy (Papaver rhoeas), field violet (Viola arvensis), geranium, cutleaf (cutleaf geranium, Geranium dissectum), Canada thistle (Cirsium arvense), and speedwell (bird's-eye speedwell, Veronica persica), were planted in pots containing Sunshine Redi-Earth® planting medium comprising spaghnum peat moss, vermiculite, starter nutrients and dolomitic limestone and treated with postemergence applications of test chemicals formulated in the same manner. Plants ranged in height from 2 to 18 cm (1- to 4-leaf stage) for postemergence treatments. Treated plants and controls were maintained in a greenhouse for 13 to 15 d, after which time all species were compared to controls and visually evaluated. Plant response ratings, summarized in Table C, are based on a scale of 0 to 100 where 0 is no effect and 100 is complete control. A dash (-) response means no test result.

corn (Zea mays) = experiment: Test C preemergence, plant response rating; settings: scale 0 to 100; for Corn plant response rating: preemergence
Description: as §2, §3

[6] = system: crabgrass, large (large crabgrass, Digitaria sanguinalis); experiment: Test C preemergence, plant response rating; settings: scale 0 to 100; for Crabgrass, Large plant response rating: preemergence
Description: as §2, §3

[7] = system: foxtail, giant (giant foxtail, Setaria faberii); experiment: Test C preemergence, plant response rating; settings: scale 0 to 100; for Foxtail, Giant plant response rating: preemergence
Description: as §2, §3

[8] = system: lambsquarters (Chenopodium album); experiment: Test C preemergence, plant response rating; settings: scale 0 to 100; for Lambsquarters plant response rating: preemergence
Description: as §2, §3

[9] = system: morningglory (Ipomoea coccinea); experiment: Test C preemergence, plant response rating; settings: scale 0 to 100; for Morningglory plant response rating: preemergence
Description: as §2, §3

[10] = system: nutsedge, yellow (yellow nutsedge, Cyperus esculentus); experiment: Test C preemergence, plant response rating; settings: scale 0 to 100; for Nutsedge, Yellow plant response rating: preemergence
Description: as §2, §3

[11] = system: oilseed rape (Brassica napus); experiment: Test C preemergence, plant response rating; settings: scale 0 to 100; for Oilseed Rape plant response rating: preemergence
Description: as §2, §3

[12] = system: ragweed (common ragweed, Ambrosia elatior); experiment: Test C preemergence, plant response rating; settings: scale 0 to 100; for Ragweed plant response rating: preemergence
Description: as §2, §3

[13] = system: ryegrass, Italian (Italian ryegrass, Lolium multiflorum); experiment: Test C preemergence, plant response rating; settings: scale 0 to 100; for Ryegrass, Italian plant response rating: preemergence
Description: as §2, §3

soybean (Glycine max) = experiment: Test C preemergence, plant response rating; settings: scale 0 to 100; for Soybean plant response rating: preemergence
Description: as §2, §3

[14] = system: velvetleaf (Abutilon theophrasti); experiment: Test C preemergence, plant response rating; settings: scale 0 to 100; for Velvetleaf plant response rating: preemergence
Description: as §2, §3

[15] = system: waterhemp (common waterhemp, Amaranthus rudis); experiment: Test C preemergence, plant response rating; settings: scale 0 to 100; for Waterhemp plant response rating: preemergence
Description: as §2, §3

[16] = system: wheat (winter wheat, Triticum aestivum); experiment: Test C preemergence, plant response rating; settings: scale 0 to 100; for Wheat plant response rating: preemergence
Description: as §2, §3

## CCCOC(=O)c1c(Br)cccc1Oc1ncc(Cl)cn1 [Compound 13, propyl 2-bromo-6-[(5-chloro-2-pyrimidinyl)oxy]benzoate]
[1]; 125 g ai/ha
  pest or weed control at 125 g/ha: 10%
[1]; 500 g ai/ha
  pest or weed control at 500 g/ha: 90%
[2]; 125 g ai/ha
  pest or weed control at 125 g/ha: 100%
[2]; 500 g ai/ha
  pest or weed control at 500 g/ha: 100%
[3]; 125 g ai/ha
  pest or weed control at 125 g/ha: 100%
[3]; 500 g ai/ha
  pest or weed control at 500 g/ha: 100%
[4]; 125 g ai/ha
  pest or weed control at 125 g/ha: 0%
[4]; 500 g ai/ha
  pest or weed control at 500 g/ha: 0%
[5]; Alopecurus myosuroides, pre-emergence, Preemergence, 16 g ai/ha
  pest or weed control at 16 g/ha: 0%
[5]; Alopecurus myosuroides, pre-emergence, Preemergence, 31 g ai/ha
  pest or weed control at 31 g/ha: 0%
[5]; 4 g ai/ha
  Blackgrass plant response rating: 0
[5]; 8 g ai/ha
  Blackgrass plant response rating: 0
Corn (Zea mays); Zea mays, pre-emergence, Preemergence, 16 g ai/ha
  Corn plant response rating (crop injury, 0 = no effect, 100 = complete kill) at 16 g/ha: 5%
Corn (Zea mays); Zea mays, pre-emergence, Preemergence, 31 g ai/ha
  Corn plant response rating (crop injury, 0 = no effect, 100 = complete kill) at 31 g/ha: 10%
Corn (Zea mays); 4 g ai/ha
  Corn plant response rating: 0
Corn (Zea mays); 8 g ai/ha
  Corn plant response rating: 0
[6]; Digitaria sanguinalis, pre-emergence, Preemergence, 16 g ai/ha
  pest or weed control at 16 g/ha: 60%
[6]; Digitaria sanguinalis, pre-emergence, Preemergence, 31 g ai/ha
  pest or weed control at 31 g/ha: 85%
[6]; 4 g ai/ha
  Crabgrass, Large plant response rating: 25
[6]; 8 g ai/ha
  Crabgrass, Large plant response rating: 30
[7]; Setaria faberi, pre-emergence, Preemergence, 16 g ai/ha
  pest or weed control at 16 g/ha: 0%
[7]; Setaria faberi, pre-emergence, Preemergence, 31 g ai/ha
  pest or weed control at 31 g/ha: 95%
[7]; 4 g ai/ha
  Foxtail, Giant plant response rating: 0
[7]; 8 g ai/ha
  Foxtail, Giant plant response rating: 0
[8]; Chenopodium album, pre-emergence, Preemergence, 16 g ai/ha
  pest or weed control at 16 g/ha: 50%
[8]; Chenopodium album, pre-emergence, Preemergence, 31 g ai/ha
  pest or weed control at 31 g/ha: 15%
[8]; 4 g ai/ha
  Lambsquarters plant response rating: 0
[8]; 8 g ai/ha
  Lambsquarters plant response rating: 5
[9]; Ipomoea, pre-emergence, Preemergence, 16 g ai/ha
  pest or weed control at 16 g/ha: 5%
[9]; Ipomoea, pre-emergence, Preemergence, 31 g ai/ha
  pest or weed control at 31 g/ha: 5%
[9]; 4 g ai/ha
  Morningglory plant response rating: 0
[9]; 8 g ai/ha
  Morningglory plant response rating: 0
[10]; Cyperus, pre-emergence, Preemergence, 16 g ai/ha
  pest or weed control at 16 g/ha: 0%
[10]; Cyperus, pre-emergence, Preemergence, 31 g ai/ha
  pest or weed control at 31 g/ha: 5%
[10]; 4 g ai/ha
  Nutsedge, Yellow plant response rating: 0
[10]; 8 g ai/ha
  Nutsedge, Yellow plant response rating: 0
[11]; Brassica napus, pre-emergence, Preemergence, 16 g ai/ha
  plant injury at 16 g/ha: 0%
[11]; Brassica napus, pre-emergence, Preemergence, 31 g ai/ha
  plant injury at 31 g/ha: 50%
[11]; 4 g ai/ha
  Oilseed Rape plant response rating: 0
[11]; 8 g ai/ha
  Oilseed Rape plant response rating: 0
[12]; Ambrosia artemisiifolia, pre-emergence, Preemergence, 16 g ai/ha
  pest or weed control at 16 g/ha: 0%
[12]; Ambrosia artemisiifolia, pre-emergence, Preemergence, 31 g ai/ha
  pest or weed control at 31 g/ha: 10%
[12]; 4 g ai/ha
  Ragweed plant response rating: 0
[12]; 8 g ai/ha
  Ragweed plant response rating: 0
[13]; Lolium multiflorum, pre-emergence, Preemergence, 16 g ai/ha
  pest or weed control at 16 g/ha: 0%
[13]; Lolium multiflorum, pre-emergence, Preemergence, 31 g ai/ha
  pest or weed control at 31 g/ha: 0%
[13]; 4 g ai/ha
  Ryegrass, Italian plant response rating: 0
[13]; 8 g ai/ha
  Ryegrass, Italian plant response rating: 0
Soybean (Glycine max); Glycine max, pre-emergence, Preemergence, 16 g ai/ha
  plant injury at 16 g/ha: 5%
Soybean (Glycine max); Glycine max, pre-emergence, Preemergence, 31 g ai/ha
  plant injury at 31 g/ha: 5%
Soybean (Glycine max); 4 g ai/ha
  Soybean plant response rating: 0
Soybean (Glycine max); 8 g ai/ha
  Soybean plant response rating: 0
[14]; Abutilon theophrasti, pre-emergence, Preemergence, 16 g ai/ha
  pest or weed control at 16 g/ha: 20%
[14]; Abutilon theophrasti, pre-emergence, Preemergence, 31 g ai/ha
  pest or weed control at 31 g/ha: 70%
[14]; 4 g ai/ha
  Velvetleaf plant response rating: 5
[14]; 8 g ai/ha
  Velvetleaf plant response rating: 10
[15]; Amaranthus tuberculatus, pre-emergence, Preemergence, 16 g ai/ha
  pest or weed control at 16 g/ha: 80%
[15]; Amaranthus tuberculatus, pre-emergence, Preemergence, 31 g ai/ha
  pest or weed control at 31 g/ha: 100%
[15]; 4 g ai/ha
  Waterhemp plant response rating: 5
[15]; 8 g ai/ha
  Waterhemp plant response rating: 10
[16]; Triticum aestivum, pre-emergence, Preemergence, 16 g ai/ha
  plant injury at 16 g/ha: 0%
[16]; Triticum aestivum, pre-emergence, Preemergence, 31 g ai/ha
  plant injury at 31 g/ha: 5%
[16]; 4 g ai/ha
  Wheat plant response rating: 0
[16]; 8 g ai/ha
  Wheat plant response rating: 0
